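Abbreviation: GI50, concentration required for 50% inhibition of growth. Definition used: TGI = concentration required for complete inhibition of growth.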
Assays:
Assay in all cases: inhibition of tumour cell growth, NCI panel, 384-well format
786-0 renal = system: 786-0 renal
A498 renal = system: A498 renal
A549 NSCLC = system: A549 NSCLC
ACHN renal = system: ACHN renal
BT-549 breast = system: BT-549 breast
CAKI-1 renal = system: CAKI-1 renal
CCRF-CEM leukemia = system: CCRF-CEM leukemia
COLO 205 colon = system: COLO 205 colon
DU-145 prostate = system: DU-145 prostate
EKVX NSCLC = system: EKVX NSCLC
HCC-2998 colon = system: HCC-2998 colon
HCT-15 colon = system: HCT-15 colon
HL-60(TB) leukemia = system: HL-60(TB) leukemia
HOP-62 NSCLC = system: HOP-62 NSCLC
HOP-92 NSCLC = system: HOP-92 NSCLC
HS 578T breast = system: HS 578T breast
HT29 colon = system: HT29 colon
IGROV1 ovarian = system: IGROV1 ovarian
KM12 colon = system: KM12 colon
M14 melanoma = system: M14 melanoma
MALME-3M melanoma = system: MALME-3M melanoma
MCF7 breast = system: MCF7 breast
MDA-MB-231 breast = system: MDA-MB-231 breast
MDA-MB-435 melanoma = system: MDA-MB-435 melanoma
MDA-MB-468 breast = system: MDA-MB-468 breast
MOLT-4 leukemia = system: MOLT-4 leukemia
NCI-H226 lung = system: NCI-H226 lung
NCI-H23 lung = system: NCI-H23 lung

N[C@H]1C[C@@H]1c1ccc(-c2cccc(O)c2)cc1
GI50 (786-0 renal): 30.1 µM
TGI (786-0 renal): > 100 µM
GI50 (A498 renal): 20.3 µM
TGI (A498 renal): 60.3 µM
GI50 (A549 NSCLC): 44.9 µM
TGI (A549 NSCLC): > 100 µM
GI50 (ACHN renal): 27 µM
TGI (ACHN renal): 61.7 µM
GI50 (BT-549 breast): 19.5 µM
TGI (BT-549 breast): 48.8 µM
GI50 (CAKI-1 renal): 24.6 µM
TGI (CAKI-1 renal): 50.9 µM
GI50 (CCRF-CEM leukemia): 15 µM
TGI (CCRF-CEM leukemia): 28.4 µM
GI50 (COLO 205 colon): 43.9 µM
TGI (COLO 205 colon): > 100 µM
GI50 (DU-145 prostate): 48.7 µM
TGI (DU-145 prostate): > 100 µM
GI50 (EKVX NSCLC): 30.8 µM
TGI (EKVX NSCLC): > 100 µM
GI50 (HCC-2998 colon): 18.4 µM
TGI (HCC-2998 colon): 38.7 µM
GI50 (HCT-15 colon): 26.7 µM
TGI (HCT-15 colon): 68 µM
GI50 (HL-60(TB) leukemia): 14.3 µM
TGI (HL-60(TB) leukemia): 27.5 µM
GI50 (HOP-62 NSCLC): 17 µM
TGI (HOP-62 NSCLC): 45 µM
GI50 (HOP-92 NSCLC): 29.4 µM
TGI (HOP-92 NSCLC): 72.9 µM
GI50 (HS 578T breast): 16.9 µM
TGI (HS 578T breast): 34.5 µM
GI50 (HT29 colon): 24.6 µM
TGI (HT29 colon): 64.3 µM
GI50 (IGROV1 ovarian): 44.1 µM
TGI (IGROV1 ovarian): > 100 µM
GI50 (KM12 colon): 20.1 µM
TGI (KM12 colon): 37.8 µM
GI50 (M14 melanoma): 20.1 µM
TGI (M14 melanoma): 36.5 µM
GI50 (MALME-3M melanoma): 16.8 µM
TGI (MALME-3M melanoma): 31.1 µM
GI50 (MCF7 breast): 36 µM
TGI (MCF7 breast): > 100 µM
GI50 (MDA-MB-231 breast): 21.1 µM
TGI (MDA-MB-231 breast): 50.3 µM
GI50 (MDA-MB-435 melanoma): 20.9 µM
TGI (MDA-MB-435 melanoma): 46.4 µM
GI50 (MDA-MB-468 breast): 4.18 µM
TGI (MDA-MB-468 breast): 20.1 µM
GI50 (MOLT-4 leukemia): 14.7 µM
TGI (MOLT-4 leukemia): 28 µM
GI50 (NCI-H226 lung): 30.3 µM
TGI (NCI-H226 lung): 96.1 µM
GI50 (NCI-H23 lung): 23.3 µM
TGI (NCI-H23 lung): 65.6 µM

Reference: PubChem BioAssay (NCI)
